Test results: patent US10301292B2, “Bicyclic compound” (Takeda Pharmaceutical Company Limited, priority 2014, dated 2019)

How the values were obtained:
HCT116 cells = assay: Growth inhibitory activity on HCT116 cell (CellTiter-Glo); assay type: cell-based; conditions: Homo sapiens, HCT-116, 72 h, table head: 10 μM (text b2498: 1 μM), 3 days incubation, read-out: HCT116 cell proliferation inhibitory rate (%) at 10 μM
Protocol: The growth inhibitory activity of the compound on HCT116 cell was evaluated by the following method.
HCT116 cells were seeded in a 384 well blackplate at 900 cells/30 μL/well, and maintained in an RPMI medium (Wako)) containing an assay medium (2% fetal bovine serum, 50 Unit/mL penicillin, 50 μg/mL streptomycin (Invitrogen). The next day, a test compound dissolved in dimethyl sulfoxide (DMSO) was diluted with the assay medium, and the obtained compound solution was added by 10 μL to each well of a plate containing HCT116 cells and incubated at 37° C., 5% CO2 (test compound addition group).
A similar reaction was performed without adding a test compound (test compound non-addition group).
Furthermore, a similar reaction was performed under the conditions without adding HCT116 cell and a test compound (control group).
After 3 days, 20 μL of a CellTiter-Glo reagent (Promega KK) was added to the well, and the mixture was stirred for 10 min. Thereafter, the luminescence value of each well was measured by the EnVision™ multilabel counter (Perkin Elmer Inc.).
The HCT116 cell proliferation inhibitory rate (%) of the test compound was determined by the following calculation formula. (1−(luminescence of test compound addition group−luminescence of control group)÷(luminescence of test compound nonaddition group−luminescence of control group))×100

human ACC1 = target: T1, human ACC1 (Homo sapiens, UniProt Q13085); assay: Measurement of ACC1 inhibitory activity (Malonyl-CoA production, RapidFire-mass spectrometry); assay type: biochemical; conditions: 10 μM of the test compound; recombinant human ACC1; read-out: ACC1 inhibitory rate (%) at 10 μM
T1 construct: His tag (from vector pFAST-BacHTc; protein captured on Ni-NTA) (N); made in house; host or cells: SF-9 insect cells, recombinant baculovirus BAC-ACC1
Protocol: (1) Cloning of Human ACC1 Gene and Preparation of Recombinant Baculovirus
Human ACC1 gene was cloned by PCR using a human liver cDNA library (Clontech) as a template and Primer 1 and Primer 2 shown below. Primer 1 and Primer 2 were prepared by adding SalI, NotI restriction enzyme recognition sequences based on the information of the base sequence of human ACC1 gene (Genbank Accession U19822).
PCR was performed using Pyrobest DNA polymerase (TAKARA BIO INC.). The obtained PCR product was cloned to pT7 Blue vector (Novagen) and after confirmation of the base sequence, digested with restriction enzymes SalI and XbaI. The obtained DNA fragment was inserted into pFAST-BacHTc (Invitrogen) digested with restriction enzymes SalI and XbaI to give expression plasmid ACC1/pFAST-BacHTc.
Using the expression plasmid ACC1/pFAST-BacHTc and BAC-TO-BAC Baculovirus Expression System (Invitrogen), virus stock BAC-ACC1 of recombinant Baculovirus was prepared.
(2) Preparation of ACC1 Protein
SF-9 cells (Invitrogen) were inoculated to a medium (10 L) for insect cells (Sf-900IISFM medium (Invitrogen) containing 5% fetal bovine serum (Trace), 50 mg/L Gentamicin (Wako Pure Chemical Industries, Ltd.), 0.1% Pluronic F-68 (Invitrogen)) at 1.0×10^6 cells/mL, and cultured with shaking in Wave Bioreactor (GE Healthcare) at 27° C., 20 rpm, rocking angle 10°, oxygen concentration 30%.
On day 2 of the culture, recombinant Baculovirus BAC-ACC1 was added, and the cells were cultured for 3 days. The culture medium was centrifuged at 4000×g for 10 min to give virus-infected cells. The cells were washed with phosphate buffered saline (Invitrogen) and centrifuged under the same conditions. The obtained cells were cryopreserved at −80° C.
The cryopreserved cells were thawed in ice and suspended in 800 mL of 25 mM HEPES buffer (pH 7.5) containing 10% Glycerol, 0.3 M NaCl, 1 mM EDTA, 25 mM Sodium β-Glycerophosphate and 1 mM Sodium Orthovanadate, and supplemented with Complete Protease Inhibitor (Roche). The obtained suspension was homogenized two times in a polytron homogenizer (Kinematica) at 20,000 rpm for 20 sec. The obtained cell disruption solution was clarified by centrifugation at 186,000×g for 60 min and the supernatant was passed through Ni-NTA Superflow Cartridges (5 mL) (QUIAGEN). Furthermore, it was washed with 25 mM HEPES buffer (pH 7.5) containing 20 mM Imidazole, 0.3 M NaCl, and eluted with 25 mM HEPES buffer (pH 7.5) containing 250 mM Imidazol, 0.3 M NaCl. The eluate was concentrated by Amicon Ultra-15 (Nihon Millipore K.K.) having a fraction molecular weight of 50K. The obtained concentrate was subjected to gel filtration with 50 mM HEPES buffer (pH 7.5) containing 10 mM MgCl2, 2 mM dithiothreitol, 10 mM tripotassium citrate, 0.3 M NaCl by using HiLoad 26/60 Superdex200 prep grade gel filtration column (GE Healthcare) to give ACC1. The obtained ACC1 was cryopreserved at −80° C.
(3) Measurement of ACC1 Inhibitory Activity
ACC1 obtained in the above-mentioned (2) was diluted with an enzyme reaction buffer (50 mM HEPES (pH 7.5), 10 mM MgCl2, 10 mM Tripottasium Citrate, 2 mM Dithiothreitol, 0.001% Fatty acid free BSA) to a concentration of 0.2 μg/ml, and the mixture was added to each well of a 384 well assay plate by 10 μl. A test compound dissolved in dimethyl sulfoxide (DMSO) was diluted with an enzyme reaction buffer and the resulting solution (5 μl) was added to each well. The mixture was incubated at room temperature for 60 min. Then, a substrate solution (50 mM KHCO3, 200 μM ATP, 200 μM Acetyl-CoA, 5 μl) was added to each well, and the mixture was reacted at room temperature for 30 min. The reaction was quenched by adding a reaction quenching liquid (1.3% formic acid, 0.2 μM Malonyl-^13C3-CoA) by 60 μL each to the obtained reaction mixtures (test compound addition group).
In addition, a reaction was performed in the same manner as above and without adding the test compound (test compound non-addition group). […]

`CC(=O)NC(C)c1ccc2nc(-c3ccc(Oc4cccc(OCC5CC5)c4)cc3)oc2n1` (stereo not drawn) [Example 104, N-(1-(2-(4-(3-(cyclopropylmethoxy)phenoxy)phenyl)[1,3]oxazolo[5,4-b]pyridin-5-yl)ethyl)acetamide] was tested, and the inhibition at 10 µM (HCT116 cells) was 30% and the inhibition at 10 µM (human ACC1) was 98%.
In the case of `CCCCn1cc(Oc2ccc(-c3nc4ccc(C(C)NC(C)=O)cc4o3)cn2)ccc1=O` (stereo not drawn) [Example 105, N-(1-(2-(6-((1-butyl-6-oxo-1,6-dihydropyridin-3-yl)oxy)pyridin-3-yl)-1,3-benzoxazol-6-yl)ethyl)acetamide], the inhibition at 10 µM (HCT116 cells) is reported as 46% and the inhibition at 10 µM (human ACC1) is reported as 96%.
Work on `CC(NC(N)=O)c1ccc2nc(-c3ccc(Oc4cncc(OCC5CC5)c4)nc3)oc2c1` (stereo not drawn) [Example 106, 1-(1-(2-(6-((5-(cyclopropylmethoxy)pyridin-3-yl)oxy)pyridin-3-yl)-1,3-benzoxazol-6-yl)ethyl)urea] yielded an inhibition at 10 µM (HCT116 cells) of 33% and an inhibition at 10 µM (human ACC1) of 103%.
`CC(NC(N)=O)c1ccc2nc(-c3ccc(Oc4cccc(OCC(C)(F)F)c4)nc3)oc2c1` (stereo not drawn) [Example 107, 1-(1-(2-(6-(3-(2,2-difluoropropoxy)phenoxy)pyridin-3-yl)-1,3-benzoxazol-6-yl)ethyl)urea] showed an inhibition at 10 µM (HCT116 cells) of 32% and an inhibition at 10 µM (human ACC1) of 97%.
`CC(NC(N)=O)c1ccc2nc(-c3ccc(Oc4cccc(OCC5CC5)c4)nc3)oc2c1F` (stereo not drawn) [Example 108, 1-(1-(2-(6-(3-(cyclopropylmethoxy)phenoxy)pyridin-3-yl)-7-fluoro-1,3-benzoxazol-6-yl)ethyl)urea] gave an inhibition at 10 µM (HCT116 cells) of 36% and an inhibition at 10 µM (human ACC1) of 100%.
`CC(NC(N)=O)c1ccc2nc(-c3cnc(Oc4cccc(OCC5CC5)c4)cn3)oc2c1` (stereo not drawn) [Example 109, 1-(1-(2-(5-(3-(cyclopropylmethoxy)phenoxy)pyrazin-2-yl)-1,3-benzoxazol-6-yl)ethyl)urea] showed an inhibition at 10 µM (HCT116 cells) of 27% and an inhibition at 10 µM (human ACC1) of 97%.
